Experimental data reported in US10968203B2, “Pyrimidinyl-pyridyloxy-naphthyl compounds and methods of treating IRE1-related diseases and disorders” (Genentech, Inc., priority 2017, dated 2021).
Structures can show the parent of a compound that is named as a salt.

test system: XBP1s-luc 293 LUC; test: cellular PD assay, XBP1s-LUC reporter (Example 903); assay type: cell-based; settings: Table 1; read-out: XBP1s-luc 293 LUC (IC50)
Summary of the method: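 A luciferase fusion, in frame and expressed only when the XBP1 transcript is spliced, served as the readout of cellular IRE1α activity in an XBP1-Luc reporter line.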

`CCN(C)S(=O)(=O)Nc1cccc2c(Oc3ncccc3-c3ccnc(N[C@H]4CCCNC4)n3)c(C)ccc12` [Example 113, 4-[2-[[5-[[Ethyl(methyl)sulfamoyl]amino]-2-methyl-1-naphthyl]oxy]-3-pyridyl]-2-[[(3S)-3-piperidyl]amino]pyrimidine hydrochloride] and `CCS(=O)(=O)Nc1cccc2c(Oc3ncccc3-c3ccnc(N[C@H]4CCCNC4)n3)c(C)ccc12` [Example 103, (S)—N-(6-Methyl-5-((3-(2-(piperidin-3-ylamino)pyrimidin-4-yl)pyridin-2-yl)oxy)naphthalen-1-yl)ethanesulfonamide] are within 1.5-fold of each other in IC50: 343 nM for the first, 255 nM for the second.

Going from `Cc1ccc2c(NS(=O)(=O)Cc3ccccc3)c(F)ccc2c1Oc1ncccc1-c1ccnc(N[C@@H]2CNC[C@H](C)C2)n1` [Example 378, N-(2-Fluoro-6-methyl-5-((3-(2-(((3S,5R)-5-methylpiperidin-3-yl)amino)pyrimidin-4-yl)pyridin-2-yl)oxy)naphthalen-1-yl)-1-phenylmethanesulfonamide] to `Cc1ccc2c(NS(=O)(=O)CC(C)C)cccc2c1Oc1ncccc1-c1ccnc(N[C@@H]2CNC[C@H](C)C2)n1` [Example 304, 2-Methyl-N-(6-methyl-5-((3-(2-(((3S,5R)-5-methylpiperidin-3-yl)amino)pyrimidin-4-yl)pyridin-2-yl)oxy)naphthalen-1-yl)propane-1-sulfonamide], the IC50 rises from 1.41 nM to 105 nM (74-fold). The first is the more potent here.

`Cc1ccn(-c2cccc3c(Oc4ncccc4-c4ccnc(N[C@H]5CCCNC5)n4)c(C)ccc23)n1` [Example 250, (S)-4-(2-((2-methyl-5-(3-methyl-1H-pyrazol-1-yl)naphthalen-1-yl)oxy)pyridin-3-yl)-N-(piperidin-3-yl)pyrimidin-2-amine] and `Cc1ccc2c(Oc3ccccn3)cccc2c1Oc1ncccc1-c1ccnc(N[C@H]2CCCNC2)n1` [Example 239, (S)-4-(2-((2-Methyl-5-(pyridin-2-yloxy)naphthalen-1-yl)oxy)pyridin-3-yl)-N-(piperidin-3-yl)pyrimidin-2-amine] are within 1.5-fold of each other in IC50: 258 nM for the first, 245 nM for the second.

First: Cc1ccc2c(NC(=O)[C@H]3CC34CC4)cccc2c1Oc1ncccc1-c1ccnc(N[C@H]2CCCNC2)n1 (single isomer, unassigned) [Example 217]
Second: Cc1ccc2c(NC(=O)C(Cl)Cl)cccc2c1Oc1ncccc1-c1ccnc(N[C@H]2CCCNC2)n1 [Example 338, (S)-2,2-Dichloro-N-(6-methyl-5-(3-(2-(piperidin-3-ylamino)pyrimidin-4-yl)pyridin-2-yloxy)naphthalen-1-yl)acetamide]
The IC50 of the first is 2.9-fold lower: 55 nM for the first, 161 nM for the second.

Going from `CCCS(=O)(=O)Nc1c(Cl)ccc2c(Oc3ncccc3-c3ccnc(N[C@H]4CCCNC4)n3)c(C)ccc12` [Example 370, (S)—N-(2-Chloro-6-methyl-5-((3-(2-(piperidin-3-ylamino)pyrimidin-4-yl)pyridin-2-yl)oxy)naphthalen-1-yl)propane-1-sulfonamide] to `COCCCS(=O)(=O)Nc1cccc2c(Oc3ncccc3-c3ccnc(N[C@H]4CCCNC4)n3)c(C)ccc12` [Example 132, (S)-3-Methoxy-N-(6-methyl-5-((3-(2-(piperidin-3-ylamino)pyrimidin-4-yl)pyridin-2-yl)oxy)naphthalen-1-yl)propane-1-sulfonamide hydrochloride], the IC50 rises from 27.6 nM to 365 nM (13-fold).

First: Cc1ccc2c(NC(=O)c3ccccc3)cccc2c1Oc1ncccc1-c1ccnc(N[C@H]2CCCNC2)n1 [Example 115, (S)—N-(6-Methyl-5-((3-(2-(piperidin-3-ylamino)pyrimidin-4-yl)pyridin-2-yl)oxy)naphthalen-1-yl)benzamide hydrochloride]
Second: Cc1ccc2c(NS(=O)(=O)Cc3ccccc3C#N)cccc2c1Oc1ncccc1-c1ccnc(N[C@H]2CCCNC2)n1 [Example 146, (S)-1-(2-Cyanophenyl)-N-(6-methyl-5-((3-(2-(piperidin-3-ylamino)pyrimidin-4-yl)pyridin-2-yl)oxy)naphthalen-1-yl)methanesulfonamide]
The IC50 of the first is 15-fold higher: 262 nM for the first, 18 nM for the second.

Compared with `Cc1ccc2c(NS(=O)(=O)C3CCCC3)cccc2c1Oc1ncccc1-c1ccnc(N[C@H]2CCCNC2)n1` [Example 120, (S)—N-(6-Methyl-5-((3-(2-(piperidin-3-ylamino)pyrimidin-4-yl)pyridin-2-yl)oxy)naphthalen-1-yl)cyclopentanesulfonamide hydrochloride], `Cc1ccc2c(NS(=O)(=O)CC(C)C)cccc2c1Oc1ncccc1-c1ccnc(N[C@H]2CCCNC2)n1` [Example 121, (S)-2-Methyl-N-(6-methyl-5-((3-(2-(piperidin-3-ylamino)pyrimidin-4-yl)pyridin-2-yl)oxy)naphthalen-1-yl)propane-1-sulfonamide hydrochloride] is 1.7-fold lower in IC50: 180 nM for the first, 103 nM for the second. The second is the more potent here.

Going from `Cc1ccc2c(NC[C@H](O)C(F)(F)F)c(F)ccc2c1Oc1ncccc1-c1ccnc(N[C@H]2CCCNC2)n1` [Example 377, (S)-1,1,1-Trifluoro-3-((2-fluoro-6-methyl-5-((3-(2-((S)-piperidin-3-ylamino)pyrimidin-4-yl)pyridin-2-yl)oxy)naphthalen-1-yl)amino)propan-2-ol] to `CC[C@@H]1CCN(c2cccc3c(Oc4ncccc4-c4ccnc(N[C@@H]5CNC[C@H](C)C5)n4)c(C)ccc23)C1=O` (single isomer, unassigned) [Example 331], the IC50 rises from 10.2 nM to 57.9 nM (5.7-fold). The first is the more potent here.

same assay, conditions: Table 2; read-out: XBP1s-luc 293 LUC (IC50)

`Cc1ccc2c(NCC(F)CF)cccc2c1Oc1ncccc1-c1ccnc(N[C@H]2CCCNC2)n1` (mixture of isomers) [Example 460, 4-[2-[[5-(2,3-Difluoropropylamino)-2-methyl-1-naphthyl]oxy]-3-pyridyl]-N-[(3S)-3-piperidyl]pyrimidin-2-amine hydrochloride] and `Cc1ccc2c(NCC(O)C(C)C)cccc2c1Oc1ncccc1-c1ccnc(N[C@H]2CCCNC2)n1` (single isomer, unassigned) [Example 462, hydrochloride] are within 1.5-fold of each other in IC50: 92 nM for the first, 110 nM for the second.

`Cc1ccc2c(NS(=O)(=O)c3ccc4c(c3)OCO4)c(F)ccc2c1Oc1ncccc1-c1ccnc(N[C@H]2CCCNC2)n1` [Example 403, N-[2-Fluoro-6-methyl-5-[[3-[2-[[(3S)-3-piperidyl]amino]pyrimidin-4-yl]-2-pyridyl]oxy]-1-naphthyl]-1,3-benzodioxole-5-sulfonamide] and `Cc1ccc2c(NS(=O)(=O)CCCF)c(F)ccc2c1Oc1ncccc1-c1ccnc(N[C@H]2CCCNC2)n1` [Example 406, (S)-3-Fluoro-N-(2-fluoro-6-methyl-5-((3-(2-(piperidin-3-ylamino)pyrimidin-4-yl)pyridin-2-yl)oxy)naphthalen-1-yl)propane-1-sulfonamide hydrochloride] are within 1.5-fold of each other in IC50: 44 nM for the first, 31 nM for the second.

For `Cc1ccc2c(NC[C@H](O)C(F)(F)F)cccc2c1Oc1ncccc1-c1ccnc(N[C@@H]2CNC[C@@H](F)C2)n1` (single isomer, unassigned) [Example 469, hydrochloride], the IC50 was 5 nM.

test system: cells; test: not given; settings: high levels of 4μ8C; cited from earlier work

For `Cc1cc(=O)oc2c(C=O)c(O)ccc12` [Example 4μ8C], the toxicity in cells is given as “no measurable toxicity”.
